Data taken from patent US20260184697A1, “EZH1/2 INHIBITOR, PREPARATION THEREOF, AND USE THEREOF IN ANTI-TUMOR THERAPY” (JIANGSU TASLY DIYI PHARMACEUTICAL CO., LTD., priority 2022, published 2026).
Like-named read-outs stand apart in the source and are kept apart here.

Key:
EZH1/SUZ/EED = biological target: T1, EZH1/SUZ/EED (Homo sapiens, UniProt O75530+Q15022+Q92800); test: Inhibitory effect on EZH1 by the MTase-Glo method (Test Example 1); assay type: biochemical; details: EZH1/SUZ/EED 25 nM, H3 peptide 10 μM, SAM 3 μM, 30° C. 3 h, read-out: Test Example 1 WT EZH1 IC50
T1 construct: purchased BPS 51006
T1 sequence (Q92800 2-747 limits assumed): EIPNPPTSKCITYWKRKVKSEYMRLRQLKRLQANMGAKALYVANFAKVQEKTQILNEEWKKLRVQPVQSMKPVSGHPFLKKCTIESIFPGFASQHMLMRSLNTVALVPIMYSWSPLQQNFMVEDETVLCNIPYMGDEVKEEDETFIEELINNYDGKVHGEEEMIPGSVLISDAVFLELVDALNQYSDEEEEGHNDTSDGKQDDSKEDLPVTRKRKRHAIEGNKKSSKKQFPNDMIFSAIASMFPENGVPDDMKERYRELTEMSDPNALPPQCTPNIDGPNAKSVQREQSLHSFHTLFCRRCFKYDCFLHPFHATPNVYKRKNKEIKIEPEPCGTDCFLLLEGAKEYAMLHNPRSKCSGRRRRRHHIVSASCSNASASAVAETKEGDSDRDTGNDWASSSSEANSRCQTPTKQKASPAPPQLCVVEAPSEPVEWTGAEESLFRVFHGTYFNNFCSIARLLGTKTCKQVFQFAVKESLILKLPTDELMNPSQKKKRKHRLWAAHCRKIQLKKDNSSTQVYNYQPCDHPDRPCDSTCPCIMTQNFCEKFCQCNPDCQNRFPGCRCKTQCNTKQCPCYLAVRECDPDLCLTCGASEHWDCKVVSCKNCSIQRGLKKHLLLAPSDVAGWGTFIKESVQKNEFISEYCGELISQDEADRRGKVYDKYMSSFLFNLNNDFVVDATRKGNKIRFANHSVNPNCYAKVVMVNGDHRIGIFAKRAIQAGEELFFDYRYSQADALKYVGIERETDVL
T1 sequence (Q15022 2-739 partner limits assumed): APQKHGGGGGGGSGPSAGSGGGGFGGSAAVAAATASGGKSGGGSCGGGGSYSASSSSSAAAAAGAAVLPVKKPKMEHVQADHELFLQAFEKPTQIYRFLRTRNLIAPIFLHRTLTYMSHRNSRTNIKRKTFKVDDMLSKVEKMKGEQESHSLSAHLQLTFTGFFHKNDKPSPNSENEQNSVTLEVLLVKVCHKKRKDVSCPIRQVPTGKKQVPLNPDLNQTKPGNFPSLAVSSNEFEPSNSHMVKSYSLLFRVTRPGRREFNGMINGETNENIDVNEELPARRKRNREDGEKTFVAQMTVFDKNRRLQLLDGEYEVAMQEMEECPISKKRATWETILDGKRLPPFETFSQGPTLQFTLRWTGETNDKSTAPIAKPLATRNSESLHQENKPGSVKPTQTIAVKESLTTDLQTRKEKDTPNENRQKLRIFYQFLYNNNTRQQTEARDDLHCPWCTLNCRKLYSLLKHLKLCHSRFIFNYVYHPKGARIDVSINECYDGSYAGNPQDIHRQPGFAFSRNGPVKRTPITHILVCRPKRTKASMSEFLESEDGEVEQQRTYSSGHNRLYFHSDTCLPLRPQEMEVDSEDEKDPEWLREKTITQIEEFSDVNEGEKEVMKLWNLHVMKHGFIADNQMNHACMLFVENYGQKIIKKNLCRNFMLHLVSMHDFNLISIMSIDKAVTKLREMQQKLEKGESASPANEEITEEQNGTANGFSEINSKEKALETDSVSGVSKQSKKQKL
T1 sequence (O75530 2-441 partner limits assumed): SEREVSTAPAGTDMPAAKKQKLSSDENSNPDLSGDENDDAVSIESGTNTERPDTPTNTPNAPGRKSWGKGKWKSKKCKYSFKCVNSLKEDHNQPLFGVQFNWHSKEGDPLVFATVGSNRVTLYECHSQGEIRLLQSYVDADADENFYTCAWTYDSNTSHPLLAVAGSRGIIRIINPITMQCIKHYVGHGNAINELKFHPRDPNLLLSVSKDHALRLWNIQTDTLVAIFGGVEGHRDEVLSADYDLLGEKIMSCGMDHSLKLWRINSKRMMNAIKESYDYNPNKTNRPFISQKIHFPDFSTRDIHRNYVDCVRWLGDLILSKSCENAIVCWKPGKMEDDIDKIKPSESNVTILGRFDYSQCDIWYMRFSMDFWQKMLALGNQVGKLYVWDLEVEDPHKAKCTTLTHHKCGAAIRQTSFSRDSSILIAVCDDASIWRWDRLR
Method: (§1) The compound was dissolved in DMSO, and the compound was serially diluted using ECHO665 and transferred to a 384-well reaction plate (Corning, 3824). A sample containing only DMSO was added as a positive control (maximum signal control) and a negative control (minimum signal control), while ensuring that the final DMSO content in each reaction well was 0.5%. The protein was configured in reaction buffer (50 mM Bicine, 0.01% Triton X-100, 1 mM DTT, 0.01% BSA, pH 7.6), such that the final reaction concentrations of EZH2/SUZ/EED (BPS, 51003) protein solution and EZH1/SUZ/EED (BPS, 51006) were 6.25 nM and 25 nM, respectively. The negative control (minimum signal control) used an equal amount of buffer instead of protein solution. The prepared protein solution was added to the 384-well reaction plate and pre-incubated at room temperature for 15 minutes. The mixture of the substrate H3 peptide fragment (custom-synthesized by GenScript, biotinylated Histone H3(21-44) peptide ([…]-GG-K(Biotin)-OH)) prepared in the reaction buffer and SAM (Promega, V7601) was added into the 384-well plate, such that the final reaction concentration of H3 peptide fragment was 10 μM, and the final concentration of SAM was 3 μM. The mixture was centrifuged at 1000 rpm for 1 min. The 384-well reaction plate was placed in a constant temperature shaker and incubate at 30° C. for 3 h at a speed of 300 rpm. Then the detection reagent was added according to the experimental process of the kit MTase-Glo (Promega, V7601) and incubated.
(§2) After incubation, read with BMG PHERAStar. The luminescence signals obtained by positive control (maximum signal control) and negative control (minimum signal control) were normalized to obtain the inhibition rate of different concentrations of compounds. Then, the IC50 of the compound on the enzyme activity inhibition was calculated by GraphPad Prism 6 with log(inhibitor) vs. response-Variable slope model fitting. The fitting equation is: Y=Bottom+(Top−Bottom)/(1+10^((Log IC50−X)*HillSlope)), wherein Y represents the known percentage remaining enzyme activity, and X represents the known activity after Log compound concentration.

EZH2/SUZ/EED = biological target: T2, EZH2/SUZ/EED (Homo sapiens, UniProt O75530+Q15022+Q15910); test: Inhibitory effect on EZH2 by the MTase-Glo method (Test Example 1); assay type: biochemical; details: EZH2/SUZ/EED 6.25 nM, H3 peptide 10 μM, SAM 3 μM, 30° C. 3 h, read-out: Test Example 1 WT EZH2 IC50
T2 construct: purchased BPS 51003
T2 sequence (Q15910 2-746 limits assumed): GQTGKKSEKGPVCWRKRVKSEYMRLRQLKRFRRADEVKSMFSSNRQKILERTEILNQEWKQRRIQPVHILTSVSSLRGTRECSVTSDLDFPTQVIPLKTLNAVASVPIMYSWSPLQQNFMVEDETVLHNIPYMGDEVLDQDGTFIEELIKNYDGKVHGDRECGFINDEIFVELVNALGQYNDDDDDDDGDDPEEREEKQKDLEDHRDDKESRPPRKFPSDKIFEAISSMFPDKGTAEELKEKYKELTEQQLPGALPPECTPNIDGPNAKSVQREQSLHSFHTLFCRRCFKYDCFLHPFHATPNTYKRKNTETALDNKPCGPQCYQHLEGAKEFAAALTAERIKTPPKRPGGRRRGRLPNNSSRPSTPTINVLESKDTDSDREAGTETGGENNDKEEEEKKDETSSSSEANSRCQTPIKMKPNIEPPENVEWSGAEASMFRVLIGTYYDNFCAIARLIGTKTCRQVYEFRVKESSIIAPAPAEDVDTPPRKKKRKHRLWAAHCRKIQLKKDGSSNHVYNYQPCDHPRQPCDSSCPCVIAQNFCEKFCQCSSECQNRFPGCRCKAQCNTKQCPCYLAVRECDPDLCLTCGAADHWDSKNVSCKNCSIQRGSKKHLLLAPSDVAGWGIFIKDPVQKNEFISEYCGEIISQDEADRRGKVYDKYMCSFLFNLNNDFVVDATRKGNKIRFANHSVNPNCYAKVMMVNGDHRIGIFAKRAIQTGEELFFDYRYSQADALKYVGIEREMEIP
T2 sequence (Q15022 2-739 partner limits assumed): as the sequence (Q15022 2-739 partner limits assumed) above
T2 sequence (O75530 2-441 partner limits assumed): as the sequence (O75530 2-441 partner limits assumed) above
Method: as §1, §2

[1] = tested on: H3K27Me3 methylation in Karpas-422 cells; test: H3K27Me3 cell method, inhibition of H3K27Me3 methylation (Test Example 2); assay type: cell-based, human
Method: Karpas-422 (Nanjing Kebai, CBP60629) cells were seeded in a 96-well plate (Corning, 3894) at 15,000 cells per well in culture medium (80% 1640 (Hyclone, SH30809.01)+20% FBS (Corning, 35-081-CV)), and then added with different concentrations of compounds for treatment. The cell growth group without adding compounds is used as a positive control (maximum signal control), and the medium is used as a negative control (minimum signal control), while ensuring that in each reaction well, the final concentration of DMSO was 0.2%. Compounds and cells were incubated for 3 days in a cell culture incubator (37° C., 5% CO2). The 96-well plate was taken out from the cell culture incubator and equilibrated to room temperature, and 25 ul of cell suspension was taken out into a 384-well plate. The CCK8 (Beiyuntian, C0040) detection reagent was added, incubated at 37° C. for 1 h, and […] was detected. The rest of the cells followed the procedure of the kit EPIgeneous H3K27Me3 cellular kit (Cisbio, 62KC3PAE) to carry out experiment, read HTRF signal with BMG PHERAStar. […] By GraphPad Prism 6 with log(inhibitor)vs.response-Variable slope model simulation, the IC50 of the compound on cell activity inhibition was calculated. The fitting equation is: Y=Bottom+(Top−Bottom)/(1+10^((Log IC50−X)*HillSlope)), wherein Y represents the inhibition rate, and X represents the known concentration of the compound after Log.

[2] = Karpas-422 cells, 3 days incubation, HTRF signal, read-out: Test Example 2 H3K27Me3 inhibition (Karpas-422) IC50
[3] = Homo sapiens, KARPAS-422, 72 h, Karpas-422 cells, 3 days incubation, HTRF signal, read-out: Test Example 2 H3K27Me3 inhibition (Karpas-422) IC50
[4] = Homo sapiens, KARPAS-422, 72 h, read-out: Test Example 2 H3K27Me3 inhibition (Karpas-422) IC50(nM)

Compound	IC50 (EZH1/SUZ/EED) [nM]	IC50 (EZH2/SUZ/EED) [nM]	IC50 [1, 2] [nM]	IC50 [1, 3] [nM]	IC50 [1, 4] [nM]
Cc1cc(C)c(CNC(=O)c2cc(Cl)c3c(c2C)OC(C2CCC(N4CC5COCC5C4)CC2)CO3)c(=O)[nH]1 (single isomer, unassigned) [Compound 60]	94.9	16.4	> 1000		
COC1CN(C2CCC(C3COc4c(Cl)cc(C(=O)NCc5c(C)cc(C)[nH]c5=O)c(C)c4O3)CC2)C1 (single isomer, unassigned) [Compound 62]	1440	22.1	504		
Cc1cc(C)c(CNC(=O)c2cc(Cl)c3c(c2C)OC(C2CCC(NC4CC(F)C4)CC2)CO3)c(=O)[nH]1 (single isomer, unassigned) [Compound 64]	254	16.6		896	
Cc1cc(C)c(CNC(=O)c2cc(Cl)c3c(c2C)OC(C2CCC(N4CC(F)C4)CC2)CO3)c(=O)[nH]1 (single isomer, unassigned) [Compound 70]	177	22.1		201	
Cc1cc(C)c(CNC(=O)c2cc(Cl)c3c(c2C)OC(C2CCC(N4CC(OC5CC5)C4)CC2)CO3)c(=O)[nH]1 (single isomer, unassigned) [Compound 76]	270	7.6	7.6		
Cc1cc(C)c(CNC(=O)c2cc(Cl)c3c(c2C)OC(C2CCC(N4CC(OC5CC5)C4)CC2)CO3)c(=O)[nH]1 (single isomer, unassigned) [Compound 77]	142	27.3	260		
COCCN1CCC([C@H]2COc3c(Cl)cc(C(=O)NCc4c(SC)cc(C)[nH]c4=O)c(C)c3O2)CC1 [Compound 17]	16.5	4.6		12	
[2H]C1(OC)CN([C@H]2CC[C@@H]([C@H]3COc4c(Cl)cc(C(=O)NCc5c(SC)cc(C)[nH]c5=O)c(C)c4O3)CC2)C1 [Compound 22]	2.3	2.1		1.8	
CSc1cc(C)[nH]c(=O)c1CNC(=O)c1cc(Cl)c2c(c1C)O[C@@H](C1CCN(CCF)CC1)CO2 [Compound 24]	9.2	4.5		9.8	
CSc1cc(C)[nH]c(=O)c1CNC(=O)c1cc(Cl)c2c(c1C)O[C@@H](C1CCN(CC3CCC3)CC1)CO2 [Compound 25]	8.3	1.6		17.3	
COCCN(C)[C@H]1CC[C@@H]([C@H]2COc3c(Cl)cc(C(=O)NCc4c(SC)cc(C)[nH]c4=O)c(C)c3O2)CC1 [Compound 26]	5.4	2		3.4	
COCCN(C)[C@H]1CC[C@H]([C@H]2COc3c(Cl)cc(C(=O)NCc4c(SC)cc(C)[nH]c4=O)c(C)c3O2)CC1 [Compound 27]	14.4	2.3		11.4	
CSc1cc(C)[nH]c(=O)c1CNC(=O)c1cc(Cl)c2c(c1C)O[C@@H]([C@H]1CC[C@@H](N3CC4(COC4)C3)CC1)CO2 [Compound 28]	9.4	3.7		8.2	
CSc1cc(C)[nH]c(=O)c1CNC(=O)c1cc(Cl)c2c(c1C)O[C@@H]([C@H]1CC[C@H](N3CC4(COC4)C3)CC1)CO2 [Compound 29]	5.8	3.3		34.2	
CSc1cc(C)[nH]c(=O)c1CNC(=O)c1cc(Cl)c2c(c1C)O[C@@H]([C@H]1CC[C@H](N3CCC3)CC1)CO2 [Compound 33]	9.4	3.6			7.7
CSc1cc(C)[nH]c(=O)c1CNC(=O)c1cc(Cl)c2c(c1C)O[C@@H]([C@H]1CC[C@H](N3CC(CF)C3)CC1)CO2 [Compound 35]	7.4	3.4		60.5	

Compound	IC50 (EZH1/SUZ/EED) [nM]	IC50 (EZH2/SUZ/EED) [nM]	IC50 [1, 2] [nM]	IC50 [1, 3] [nM]	IC50 [1, 4] [nM]
CSc1cc(C)[nH]c(=O)c1CNC(=O)c1cc(Cl)c2c(c1C)O[C@@H]([C@H]1CC[C@@H](NC3(CF)COC3)CC1)CO2 [Compound 36]	9.7	2.4		11	
CSc1cc(C)[nH]c(=O)c1CNC(=O)c1cc(Cl)c2c(c1C)O[C@@H]([C@H]1CC[C@H](NC3(CF)COC3)CC1)CO2 [Compound 37]	5.9	3.1		7	
CCS(=O)(=O)N1CCC([C@H]2COc3c(Cl)cc(C(=O)NCc4c(SC)cc(C)[nH]c4=O)c(C)c3O2)CC1 [Compound 38]	4.7	2.3		11.5	
COC1C2CN([C@H]3CC[C@@H]([C@H]4COc5c(Cl)cc(C(=O)NCc6c(SC)cc(C)[nH]c6=O)c(C)c5O4)CC3)CC21 (stereo partly drawn) [Compound 43]	4.1	3.6		4.1	
Cc1cc(C)c(CNC(=O)c2cc(Cl)c3c(c2C)O[C@@H]([C@H]2CC[C@@H](N4CC5COCC5C4)CC2)CO3)c(=O)[nH]1 (stereo partly drawn) [Compound 73]	196	51.3		> 1000	
Cc1cc(C)c(CNC(=O)c2cc(Cl)c3c(c2C)O[C@@H]([C@H]2CC[C@H](N4CC5COCC5C4)CC2)CO3)c(=O)[nH]1 (stereo partly drawn) [Compound 75]	199	48.1		245	
COCCOC1CN([C@H]2CC[C@@H]([C@H]3COc4c(Cl)cc(C(=O)NCc5c(C)cc(C)[nH]c5=O)c(C)c4O3)CC2)C1 [Compound 91]	27.3	3.8		11.7	
COC1CN([C@H]2CC[C@@H]([C@H]3COc4c(Cl)cc(C(=O)NCc5c(C)cc(C)[nH]c5=O)c(C)c4O3)CC2)C1 [Compound 92]	33.1	2.5		22	
COCCN(C)[C@H]1CC[C@@H]([C@H]2COc3c(Cl)cc(C(=O)NCc4c(OC)cc(C)[nH]c4=O)c(C)c3O2)CC1 [Compound 107]	17.8	3.2		56.9	
COc1cc(C)[nH]c(=O)c1CNC(=O)c1cc(Cl)c2c(c1C)O[C@@H]([C@H]1CC[C@H](N3CC(OCCF)C3)CC1)CO2 [Compound 110]	15.4	2.7		21.3	
Cc1cc(C)c(CNC(=O)c2cc(Cl)c3c(c2C)OC(C2CCC(N(C)C)CC2)C(C)O3)c(=O)[nH]1 (stereo not drawn) [Compound 124]	326	16.1			133
Cc1cc(C)c(CNC(=O)c2cc(Cl)c3c(c2C)OC(C2CCC(N(C)CCF)CC2)CO3)c(=O)[nH]1 (stereo not drawn) [Compound 125]	307	33.9		402	
Cc1cc(C)c(CNC(=O)c2cc(Cl)c3c(c2C)OC(C2CCC(N(C)C4CC(F)C4)CC2)CO3)c(=O)[nH]1 (stereo not drawn) [Compound 126]	218	20.3		818	
Cc1cc(C)c(CNC(=O)c2c(C)c3c(c(Cl)c2F)OC[C@H]([C@H]2CC[C@@H](N(C)C)CC2)O3)c(=O)[nH]1 [Compound 131]	46.8	3.1		43.3	
Cc1cc(C)c(CNC(=O)c2cc(Cl)c3c(c2Cl)OC[C@@H]([C@H]2CC[C@@H](N(C)C)CC2)O3)c(=O)[nH]1 [Compound 147]	92	6.8			83
